From ChEMBL document CHEMBL6071191, “Correlating Predicted Reactivities with Experimental Inhibition Data of Covalent ChlaDUB1 Inhibitors” (ACS Med Chem Lett, 2024)

How the values were obtained:
[1] = biological target: T1, Deubiquitinase and deneddylase Dub1 (Chlamydia trachomatis serovar L2 (strain ATCC VR-902B / DSM 19102 /434/Bu)) (UniProt B0B9A0); assay: Binding affinity to Chlamydia trachomatis DUB1 using Ub-Rh110Gly as substrate assessed as ratio of Kinact/Ki
T1 sequence (whole entry): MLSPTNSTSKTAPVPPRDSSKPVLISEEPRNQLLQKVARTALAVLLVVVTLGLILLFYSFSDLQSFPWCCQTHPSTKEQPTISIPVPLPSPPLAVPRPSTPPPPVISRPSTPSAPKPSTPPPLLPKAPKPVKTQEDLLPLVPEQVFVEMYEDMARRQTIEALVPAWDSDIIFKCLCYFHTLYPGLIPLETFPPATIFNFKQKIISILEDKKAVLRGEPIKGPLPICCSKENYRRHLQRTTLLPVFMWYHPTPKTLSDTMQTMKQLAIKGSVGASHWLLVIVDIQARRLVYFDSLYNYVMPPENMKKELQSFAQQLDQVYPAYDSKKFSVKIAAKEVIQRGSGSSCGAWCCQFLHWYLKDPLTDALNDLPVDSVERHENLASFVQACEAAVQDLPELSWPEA

[2] = Drug metabolism in PBS assessed as pseudo-first-order rate constant of Cysteine at 50 uM incubated for >10 hrs in presence of L-Cysteine by HPLC-UV analysis; format: ADME; conditions: buffer

A Ratio [1] of 32.2 M⁻¹ s⁻¹ was found for `COc1ccccc1CNC(=O)c1ccc(CNC(=O)c2nc(C#N)ncc2F)cc1` in this work.

A Ratio [1] of 137 M⁻¹ s⁻¹ was found for `COc1ccccc1CNC(=O)c1ccc(CNC(=O)c2coc(C#N)n2)cc1` in this work.

A K [2] of 0.151 h⁻¹ was found for `COc1ccccc1CNC(=O)c1ccc(CNC(=O)C2CCN(C#N)CC2)cc1` in this work.

A Ratio [1] of 1.1 M⁻¹ s⁻¹ and a K [2] of 0.87 h⁻¹ were found for `COc1ccccc1CNC(=O)c1ccc(CNC(=O)[C@H]2CCN(C#N)C2)cc1` in this work.

A Ratio [1] of 10.7 M⁻¹ s⁻¹ was found for `N#Cc1nccc(C(=O)NCc2ccc(C(=O)NCc3ccccc3)cc2)n1` in this work.

A Ratio [1] of 0.761 M⁻¹ s⁻¹ and a K [2] of 0.824 h⁻¹ were found for `COc1ccccc1CNC(=O)c1ccc(CNC(=O)[C@@H]2CCN(C#N)C2)cc1` in this work.

A Ratio [1] of 15.6 M⁻¹ s⁻¹ was found for `COc1ccccc1CNC(=O)c1ccc(CNS(=O)(=O)c2cnc(C#N)nc2)cc1` in this work.
